Where two headings read alike, the source gives them in different places.
Key:
[1] = Oral acute toxicity (LD50) in mice; conditions: mouse, in vivo, observed during next 6 days
Excerpt: Mice were each treated orally with one of the compounds of formula I, and they were observed during the next 6 days. The LD50 figures obtained (doses lethal to 50% of mice tested) are shown in Table VII, expressed in mg/kg animal body weight.

[2] = system: Nippostrongylus brasiliensis; test: Activity against roundworms in rats, A.2: treatment 24 hours after infection, post-mortem worm counts; assay type: in vivo; conditions: 144 h, treated 24 hours after infection, read-out: % Reduction of mean worm load
Experimental: In the Tables of results "s.c." means subcutaneous and the doses are expressed in mg/kg animal body weight. […] A.2. Rats were infected with 100 Nippostrongylus brasiliensis larvae each, by the subcutaneous route. After 24 hours the rats were randomised and allotted to groups of 5 animals each, ready for treatment. Doses of the test compound were then administered to each group by the oral or subcutaneous route, one group of 10 animals being left untreated as a control. All the rats were killed for post-mortem worm counts 6 days after dosing. The activities, expressed in terms of the percentage reduction in mean worm load of the treated groups compared with the untreated control group, are given below in Table II.

[3] = system: Cooperia oncophora and Ostertagia ostertagi; test: C.1 Activity against Cooperia oncophora and Ostertagia ostertagi in their adult stages in calves, faecal egg counts; assay type: in vivo; conditions: s.c. (methanesulphonate salt)
Experimental: In the Tables of results "s.c." means subcutaneous and the doses are expressed in mg/kg animal body weight. […] C.1. Activity against Cooperia oncophora and Ostertagia ostertagi in their adult stages in calves. Worm-free, 6-7 week old calves were each infected with 15,000 C. oncophora and 15,000 O. ostertagi larvae. Approximately 3 weeks later, doses of the test compound were administered to each group of 2 animals by the subcutaneous route, one group of two animals being left untreated as a control. Individual faecal egg counts were determined 1 day before treatment and 5-7 days after treatment.

[4] = system: Nippostrongylus brasiliensis; test: Activity against roundworms in rats, A.1: treatment 6 days after infection (patent infection), post-mortem worm counts; assay type: in vivo; conditions: 48 h, treated 6 days after infection, read-out: % Reduction of mean worm load
Experimental: In the Tables of results "s.c." means subcutaneous and the doses are expressed in mg/kg animal body weight. […] A.1. Rats were infected with 100 Nippostrongylus brasiliensis larvae each, by the subcutaneous route. After 6 days, when the infection was patent, the rats were randomised and allotted to groups of 5 animals each, ready for treatment. One group was used for each dose level of the test compound, which was administered by the oral or subcutaneous route, and in each experiment, one group of 10 animals was left untreated as a control. All the rats were killed for post-mortem worm counts 48 hours after treatment. The activities, expressed in terms of the percentage reduction in mean worm load of the treated groups compared with the untreated group, are shown in Table I.

Fasciola hepatica = test: D. Activity against mature and immature liver flukes in sheep; assay type: in vivo; conditions: oral 25 mg/kg in gelatin capsules; for Mean % Reduction, Immature flukes: immature flukes in rest of liver; for Mean % Reduction, Mature flukes: mature flukes in bile ducts
Experimental: D. Activity against mature and immature liver flukes in sheep On the first day of the experiment a group of sheep were each infected with 300 metacercariae of liver fluke Fasciola hepatica and on the 56th day they were each infected with a further 300 metacercariae of F. hepatica. On day 70 of the experiment, doses of the test compounds of 25 mg/kg animal body weight were administered orally in gelatin capsules to groups of two animals per compound. One group of two animals was left untreated as controls. On day 98 of the experiment, all the sheep were killed. The number of mature flukes present in the bile ducts and the numbers of immature flukes present in the rest of the liver were counted. The activities, expressed in terms of the percentage reduction in mean fluke burdens compared with the untreated controls, are shown below in Table VI.

Mycosphaerella pinodes = test: Minimum effective concentration totally inhibiting fungal growth, Mycosphaerella pinodes, potato dextrose agar tubes; assay type: cell-based; conditions: Didymella pinodes, 48 h; total inhibition of fungal growth; tested at 50, 10 or 2 ppm; 25° C, 2 days
Experimental: Test tubes containing 4.0 ml of molten potato dextrose agar at about 50° C were inoculated with 0.5 ml of suspension of test compound and 0.5 ml of fungal suspension delivered from a sterile syringe to give a final concentration of each compound of 50, 10 or 2 ppm. Two replicate tubes were inoculated with each fungal species. After the addition of test compounds and fungal inoculum to the molten medium the tubes were sloped and the agar was allowed to set. The tubes were incubated at 25° C for either 2 days (Mycosphaerella pinodes) or 3 days (Helminthosporium avenae). […] The suspensions of test compounds were prepared by grinding 0.025 g of test compound with sterile distilled water containing 0.1 ml of 0.1% Texofor FX170 wetting agent, followed by dilution to the concentration desired. The inoculum of Mycosphaerella pinodes was prepared as follows: A one to two week old culture on Coon's agar on plates was scraped off with a glass rod and sterile distilled water and filtered through muslin. The filtrate, containing the spores, was used for inoculation.

[5] = sc, s.c. (methanesulphonate salt, aqueous)

Compound: C=CCSc1ccc(N2C(=O)CSC2=NC(=O)OC)c(NC(=O)CN(C)C)c1 [B, 3-[4-allylthio-2-(2-dimethylaminoacetamido)phenyl]-2-methoxycarbonyliminothiazolidin-4-one]
- LD50 at 144 h [1]: > 1000 mg/kg
- inhibition in vivo at 50 mg/kg ([2]; oral): 98%
- inhibition in vivo at 50 mg/kg [2, 5]: 97%
- % Reduction of mean egg count ([3]; 15 mg/kg): 44%
- inhibition in vivo at 100 mg/kg ([4]; oral): 97%
- inhibition in vivo at 100 mg/kg [4, 5]: 90%

Compound: CCSc1ccc(N2C(=O)CSC2=NC(=O)OC)c(NC(=O)CN(C)C)c1 [C, 3-[4-ethylthio-2-(2-dimethylaminoacetamido)phenyl]-2-methoxycarbonyliminothiazolidin-4-one]
- Mean % Reduction, Immature flukes (Fasciola hepatica): 85%
- Mean % Reduction, Mature flukes (Fasciola hepatica): 72%
- LD50 at 144 h [1]: > 1000 mg/kg
- inhibition in vivo at 12.5 mg/kg ([2]; oral): 81%
- inhibition in vivo at 50 mg/kg ([2]; oral): 90%
- inhibition in vivo at 12.5 mg/kg [2, 5]: 86%
- inhibition in vivo at 50 mg/kg [2, 5]: 98%
- % Reduction of mean egg count ([3]; 15 mg/kg): 100%
- inhibition in vivo at 100 mg/kg ([4]; oral): 74%
- inhibition in vivo at 100 mg/kg [4, 5]: 89%

Compound: CCN(CC)CC(=O)Nc1cc(Sc2ccccc2)ccc1N1C(=O)CSC1=NC(=O)OC [Compound D, 3-[2-(2-diethylaminoacetamido)-4-phenylthiophenyl]-2-methoxycarbonyliminothiazolidin-4-one]
- Mean % Reduction, Immature flukes (Fasciola hepatica): 75%
- Mean % Reduction, Mature flukes (Fasciola hepatica): less than 50%
- LD50 at 144 h [1]: > 1000 mg/kg
- inhibition in vivo at 12.5 mg/kg ([2]; oral): 96%
- inhibition in vivo at 50 mg/kg ([2]; oral): 98%
- inhibition in vivo at 25 mg/kg [2, 5]: 96%
- inhibition in vivo at 50 mg/kg [2, 5]: 100%
- % Reduction of mean egg count ([3]; 15 mg/kg): 98%
- inhibition in vivo at 100 mg/kg ([4]; oral): 99%
- inhibition in vivo at 100 mg/kg [4, 5]: 88%

Compound: COC(=O)N=C1SCC(=O)N1c1cc(Sc2ccccc2)ccc1NC(=O)CN(C)C [Compound E, 3-[2-(2-dimethylaminoacetamido)-5-phenylthiophenyl]-2-methoxycarbonyliminothiazolidin-4-one]
- MIC (Mycosphaerella pinodes): < 2 µg/mL
- LD50 at 144 h [1]: > 1000 mg/kg
- inhibition in vivo at 50 mg/kg ([2]; oral): 95%
- inhibition in vivo at 50 mg/kg [2, 5]: 99%
- % Reduction of mean egg count ([3]; 15 mg/kg): 100%
- inhibition in vivo at 100 mg/kg ([4]; oral): 65%
- inhibition in vivo at 100 mg/kg [4, 5]: 54%

Compound: COC(=O)N=C1SCC(=O)N1c1ccc(SCC2CCCCC2)cc1NC(=O)CN(C)C [F, 3-[4-cyclohexylmethylthio-2-(2-dimethylaminoacetamido)phenyl]-2-methoxycarbonyliminothiazolidin-4-one]
- inhibition in vivo at 100 mg/kg ([2]; oral): 59%
- inhibition in vivo at 100 mg/kg [2, 5]: 46%
- % Reduction of mean egg count ([3]; 25 mg/kg): 50%

Compound: CCCCSc1ccc(N2C(=O)CSC2=NC(=O)OC)c(NC(=O)CN(C)C)c1 [G, 3-[4-n-butylthio-2-(2-dimethylaminoacetamido)phenyl]-2-methoxycarbonyliminothiazolidin-4-one]
- LD50 at 144 h [1]: > 1000 mg/kg
- inhibition in vivo at 12.5 mg/kg ([2]; oral): 95%
- inhibition in vivo at 50 mg/kg ([2]; oral): 98%
- inhibition in vivo at 12.5 mg/kg [2, 5]: 96%
- inhibition in vivo at 50 mg/kg [2, 5]: 100%
- inhibition in vivo at 100 mg/kg ([4]; oral): 96%
- inhibition in vivo at 100 mg/kg [4, 5]: 84%

Compound: COC(=O)N=C1SCC(=O)N1c1ccc(SC2CCCC2)cc1NC(=O)CN(C)C [I, 3-[4-cyclopentylthio-2-(2-dimethylaminoacetamido)phenyl]-2-methoxycarbonyliminothiazolidin-4-one]
- LD50 at 144 h [1]: > 1000 mg/kg
- inhibition in vivo at 25 mg/kg ([2]; oral): 97%
- inhibition in vivo at 100 mg/kg ([2]; oral): 96%
- inhibition in vivo at 25 mg/kg [2, 5]: 87%
- inhibition in vivo at 100 mg/kg [2, 5]: 99%

Compound: CCCCCSc1ccc(N2C(=O)CSC2=NC(=O)OC)c(NC(=O)CN(C)C)c1 [J, 3-[2-(2-dimethylaminoacetamido)-4-n-pentylthiophenyl]-2-methoxycarbonyliminothiazolidin-4-one]
- LD50 at 144 h [1]: > 1000 mg/kg
- inhibition in vivo at 50 mg/kg ([2]; oral): 99%
- inhibition in vivo at 100 mg/kg ([2]; oral): 99%
- inhibition in vivo at 50 mg/kg [2, 5]: 99%
- inhibition in vivo at 100 mg/kg [2, 5]: 99%
- inhibition in vivo at 100 mg/kg ([4]; oral): 59%

Compound: CCCSc1ccc(N2C(=O)CSC2=NC(=O)OC)c(NC(=O)CN(C)C)c1 [K, 3-[2-(2-dimethylaminoacetamido)-4-n-propylthiophenyl]-2-methoxycarbonyliminothiazolidin-4-one]
- LD50 at 144 h [1]: > 1000 mg/kg
- inhibition in vivo at 3.125 mg/kg ([2]; oral): 92%
- inhibition in vivo at 50 mg/kg ([2]; oral): 97%
- inhibition in vivo at 3.125 mg/kg [2, 5]: 96%
- inhibition in vivo at 50 mg/kg [2, 5]: 98%
- % Reduction of mean egg count ([3]; 15 mg/kg): 85%
- inhibition in vivo at 50 mg/kg ([4]; oral): 99%
- inhibition in vivo at 50 mg/kg [4, 5]: 96%

Compound: COC(=O)N=C1SCC(=O)N1c1ccc(Sc2ccccc2)cc1NC(=O)CCN(C)C [L, 3-[2-(3-dimethylaminopropionamido)-4-phenylthiophenyl]-2-methoxycarbonyliminothiazolidin-4-one]
- LD50 at 144 h [1]: > 1000 mg/kg
- inhibition in vivo at 50 mg/kg ([2]; oral): 81%
- inhibition in vivo at 50 mg/kg [2, 5]: 90%
- % Reduction of mean egg count ([3]; 15 mg/kg): 84%
- inhibition in vivo at 100 mg/kg ([4]; oral): 90%

Reference: US4071528A, “Certain thiazolidine and tetrahydrothiazine compounds” (May & Baker Limited, priority 1975, dated 1978)
